From ChEMBL document CHEMBL1146156, “Fish venom (Pterios volitans) peptide reduces tumor burden and ameliorates oxidative stress in Ehrlich's ascites carcinoma xenografted mice” (2006) come the findings set out here.

Common to all, as to assay type: functional
Test [1] has as its system Mus musculus. Briefly: Increase in liver GST activity of Ehrlich's ascites carcinoma xenografted Swiss Albino mouse at 20 mg/kg.
Test [2] deals with Mus musculus. Briefly: Increase in liver glutathione peroxidase activity of Ehrlich's ascites carcinoma xenografted Swiss Albino mouse at 20 mg/kg.
Test [3] has as its system Mus musculus. The test can be described thus: Decrease in body weight of Ehrlich's ascites carcinoma xenografted Swiss albino mouse at 20 mg/kg.
For test [4], the system named is Mus musculus. Briefly: Increase in mean survival time of Ehrlich's ascites carcinoma xenografted Swiss Albino mouse at 20 mg/kg.
Test [5] has as its system Mus musculus. The test can be described thus: Increase in life span of Ehrlich's ascites carcinoma xenografted Swiss Albino mouse at 20 mg/kg.
In test [6] the test system is Mus musculus. The test can be described thus: Effect on TBARS levels in liver of Ehrlich's ascites carcinoma xenografted Swiss Albino mouse at 20 mg/kg measured per 100 g tissue.
Test [7] concerns Mus musculus. The test can be described thus: Effect on hydroperoxide levels in liver of Ehrlich's ascites carcinoma xenografted Swiss Albino mouse at 20 mg/kg measured per 100 g tissue.
The test system of test [8] is Mus musculus. The test can be described thus: Effect on GSH content in liver of Ehrlich's ascites carcinoma xenografted Swiss Albino mouse at 20 mg/kg measured per 100 g tissue.
Test [9] has as its system Mus musculus. Briefly: Increase in liver SOD activity of Ehrlich's ascites carcinoma xenografted Swiss Albino mouse at 20 mg/kg.
Test [10] concerns Mus musculus. Briefly: Increase in liver catalase activity of Ehrlich's ascites carcinoma xenografted Swiss Albino mouse at 20 mg/kg.

SMILES strings stand for the structures.

Regarding `O=c1[nH]cc(F)c(=O)[nH]1` [FLUOROURACIL], the Activity worked out at 16.2 U/mg in the test on Mus musculus [1]; 6.97 U/mg in the test with Mus musculus [2]; 25.2 g in the test on Mus musculus [3]; 119.49% in the test with Mus musculus [5]; 0.99 mmol with Mus musculus [6]; 0.85 mmol in the test on Mus musculus [7]. The Activity in the test with Mus musculus [8] is on record as 3.65 mmol; with Mus musculus [9], 3.96 U/mg; with Mus musculus [10] it was 20.4 U/mg. Further, in the test on Mus musculus [4], the MST was found to be 39.5 days.
